This series is described as follows: Human HepG2 cell viability assay in 384 well format. In kind it is toxicity, cell-based. On the set-up: dose 125 nL, time 70.5 hour; cytotoxicity at 70.5 h: concentration not given beside the values. The conditions noted are these: HepG2 cells, read-out: Inhibition.
Take `CCOCC1CN(S(=O)(=O)N(C)C)Cc2cnn(C)c21` (centres undefined): the cytotoxicity at 70.5 h is -6.39%.

Regarding `CS(=O)(=O)N1CC2(CCCN(CC3CC3)C2)Cc2ccccc21` (centres undefined), the cytotoxicity at 70.5 h was -3.95%.

As to `Cn1cc(Br)cc1C(=O)NCC(C)(O)c1ccsc1` (centres undefined), the cytotoxicity at 70.5 h is -9.72%.

`CN(C)C(=O)c1cnc2n1CCN(Cc1cccnc1)C2`: the cytotoxicity at 70.5 h worked out at 4.75%.

Regarding `CC(C)n1nc(Cn2cccn2)c2c1CN(C1CCOCC1)C2`, the cytotoxicity at 70.5 h is -4.7%.

In the case of `Cn1cnnc1C1CCCN(C(=O)NCCn2ccnc2)C1` (centres undefined), the cytotoxicity at 70.5 h is -10.4%.

Consider `Cc1cc(CN(C)C(=O)C2CCS(=O)(=O)C2)no1` (centres undefined), for which the cytotoxicity at 70.5 h was 2.42%.

`c1ccn2cc(CN3CCCC(c4ccn[nH]4)C3)nc2c1` (centres undefined): the cytotoxicity at 70.5 h came out at 25.3%.

As for `Cc1cc(CCC(=O)NCc2nccn2C)ccc1Br`, the cytotoxicity at 70.5 h was found to be 1.59%.

As to `O=C(c1ccc(S(=O)(=O)N2CCSCC2)cc1)N1CCC(O)C1` (centres undefined), the cytotoxicity at 70.5 h is -17.3%.

Consider `Cc1ccc(CNC(=O)C2CCNC(=O)C2)c(OCCC(C)C)c1` (centres undefined), for which the cytotoxicity at 70.5 h worked out at 0.635%.

For `CCC1=N[C@@]2(CC[C@@H]3CN(S(=O)(=O)CC)C[C@@H]32)C(=O)N1CC`, the cytotoxicity at 70.5 h is -2.37%.

Turning to `CC(C)(C)OC(=O)N1CC(CC(=O)NCc2ccsc2)C1`, the cytotoxicity at 70.5 h was 7.8%.

Consider `CC(C)NC1CCc2c(ccc(=O)n2CCN2CCOCC2)C1` (centres undefined), for which the cytotoxicity at 70.5 h was -6.6%.

Consider `CCc1ccc(NC(=O)c2cnc(N3CCN(C)CC3)nc2C)cc1`, for which the cytotoxicity at 70.5 h was found to be 36.8%.

For `CC1CN(C)c2ccccc2CN1CCn1cncn1` (centres undefined), the cytotoxicity at 70.5 h is -0.327%.

For the molecule `CN(C)c1ncc(-c2ccc(F)cc2)c(C2CNCCO2)n1` (centres undefined), the cytotoxicity at 70.5 h was -2.95%.

As to `Cc1cnc(CN2CCCC(c3cc(C(F)(F)F)[nH]n3)C2)cn1` (centres undefined), the cytotoxicity at 70.5 h is -1.33%.

For `CCc1nnc2n1CCN(CC(=O)N1CCc3ccccc3C1)C2`, the cytotoxicity at 70.5 h was 28.5%.

Turning to `CCn1nnc2c1C(COC)CN(Cc1cccs1)C2` (centres undefined), the cytotoxicity at 70.5 h worked out at 1.81%.

Turning to `CN1CCn2c(-c3cnn(C)c3)cnc2C12CCN(CC1CC1)CC2`, the cytotoxicity at 70.5 h was -4.02%.

With `CCN1CCN(c2ccc(F)cc2C(C)NCc2noc(C)n2)CC1` (centres undefined), the cytotoxicity at 70.5 h was -7.42%.

As for `CCOC(=O)c1nnc2ccccc2c1N1CCOC(C)(C)C1`, the cytotoxicity at 70.5 h was determined as 16.1%.

Consider `Cc1ccc(N2CCCC(N(C)Cc3nnc(C4CC4)o3)C2)nn1` (centres undefined), for which the cytotoxicity at 70.5 h is -5.49%.

Regarding `N#Cc1cccc(OCCN2CCCC(c3noc(C4CC4)n3)C2)c1` (centres undefined), the cytotoxicity at 70.5 h is -5.39%.

In the case of `CCN1CCC2(COCc3c(C)nc(N4CCOCC4)nc32)C1` (centres undefined), the cytotoxicity at 70.5 h is 11.1%.

As for `COC(=O)NCC(=O)NC(c1ccc(Cl)cc1)C(F)(F)F` (centres undefined), the cytotoxicity at 70.5 h was -8.75%.

For the molecule `CN(C)C(=O)N1CCN(Cc2ccc3occc3c2)[C@H]2CS(=O)(=O)C[C@H]21`, the cytotoxicity at 70.5 h was -3.65%.

With `CC(C)c1nc(C2CCCN(C(=O)Cn3ccccc3=O)C2)no1` (centres undefined), the cytotoxicity at 70.5 h was -1.03%.

For `CN(C)S(=O)(=O)c1ccc(CN2CCC(C(N)=O)CC2)o1`, the cytotoxicity at 70.5 h was -2.97%.

Consider `O=C(c1ccnnc1)N1C[C@H](Oc2ccccn2)[C@H]2OCCC[C@H]21`, for which the cytotoxicity at 70.5 h was -8.72%.

With `CN(C)C(=O)C1CCCN1CCCNC(=O)Cc1ccccc1F` (centres undefined), the cytotoxicity at 70.5 h was -16.1%.

Turning to `CS(=O)(=O)N1C[C@@H]2CC[C@H](C1)N(C(=O)Cn1nc3ccccc3n1)C2`, the cytotoxicity at 70.5 h came out at 20.9%.

With `c1cc(-c2c[nH]nc2C2CCCCC2)nc(N2CCCCCC2)n1`, the cytotoxicity at 70.5 h amounted to 2.67%.

Consider `COCC1CC2(CCN(C(=O)c3cncc(C)c3)CC2)CO1` (centres undefined), for which the cytotoxicity at 70.5 h worked out at 9.94%.

On to `COc1ccc(-n2nc(C)c(C(C)=O)c2C)cc1CO`, for which the cytotoxicity at 70.5 h worked out at 0.889%.

Turning to `Cc1nccn1CCC(=O)N1CCCN(CCCc2ccccc2)CC1`, the cytotoxicity at 70.5 h came out at 1.37%.

Consider `NC(=O)CC1CCN(S(=O)(=O)c2cnn(-c3ccccc3)c2)CC1`, for which the cytotoxicity at 70.5 h is -5.73%.

In the case of `CNC(=O)C1(c2cnccn2)CCCN1C(=O)c1ccccc1C` (centres undefined), the cytotoxicity at 70.5 h turned out to be 15.3%.

On to `CN(C)c1ncc(-c2c(-c3ccccc3)ncn2C(CO)C(=O)O)cn1` (centres undefined), for which the cytotoxicity at 70.5 h was -10.8%.

For `NC(=O)C(NC1CCN(CC2CCCCC2)CC1)c1ccc(F)cc1` (centres undefined), the cytotoxicity at 70.5 h is -9.96%.

Regarding `CCC(=O)N1CCC(NC2CCCC2)C1` (centres undefined), the cytotoxicity at 70.5 h is -7.41%.

Consider `CN1CCOC[C@H]1c1nc(C(C)(C)C)c[nH]1`, for which the cytotoxicity at 70.5 h came to 11.4%.

Regarding `COc1ccccc1C1CNC(=O)c2nc(-c3cnn(C)c3)[nH]c2C1` (centres undefined), the cytotoxicity at 70.5 h is -7.47%.

Take `COCCC(=O)NCCc1nc2cc(-c3ccc(OC)cc3)ncn2n1`: the cytotoxicity at 70.5 h was -6.53%.

Take `CC(COc1ccccc1)NCc1nncn1C1CCCCC1` (centres undefined): the cytotoxicity at 70.5 h worked out at 7.54%.

Consider `CC(c1ccccn1)N(C)Cc1ccc(CCC(C)(C)O)cc1` (centres undefined), for which the cytotoxicity at 70.5 h is -1.13%.

With `COCCN(Cc1cnn(C)c1)c1nc(C)nc2sccc12`, the cytotoxicity at 70.5 h was determined as 4.75%.

With `CN(C)CC(=O)N1CC[C@H]2OCC[C@@]2(COCC2CC2)C1`, the cytotoxicity at 70.5 h was -11.9%.

Turning to `Cc1cc(C)c(CNC(=O)N(C)Cc2nnc3n2CCC3)c(=O)[nH]1`, the cytotoxicity at 70.5 h is -10.3%.

For `CCC(=O)N1CCC(c2cc(Nc3ncccn3)nc(C)n2)C1` (centres undefined), the cytotoxicity at 70.5 h was -10.9%.

`CCOC(C)c1noc(CN2CCN(c3ccncc3)CC2)n1` (centres undefined): the cytotoxicity at 70.5 h is -6.31%.

For `COc1c(NC(=O)N(C)CCOc2ccc(F)cc2)c(C)nn1C`, the cytotoxicity at 70.5 h was 2.48%.

Regarding `COCCOCC(=O)N1C[C@@H]2CC[C@H](Oc3ccccc3F)[C@@H]2C1`, the cytotoxicity at 70.5 h amounted to 12.1%.

Consider `Cc1ccc(-c2ccc(C3CNCCO3)nc2)cc1` (centres undefined), for which the cytotoxicity at 70.5 h is -2.39%.

On to `CCNc1ncc(CN2CCOC(Cc3cccc(OC)c3)C2)cn1` (centres undefined), for which the cytotoxicity at 70.5 h was -2.81%.

As for `CC(NCCn1cccn1)c1ccccc1F` (centres undefined), the cytotoxicity at 70.5 h is -0.726%.

With `COCC(C)NC(=O)CSc1ccc(F)c(Cl)c1` (centres undefined), the cytotoxicity at 70.5 h was 12%.

For `O=C(CCc1cccnc1)N(Cc1ccsc1)CC1CCCO1` (centres undefined), the cytotoxicity at 70.5 h was -6.73%.

Consider `COc1cccc(-c2n[nH]cc2-c2nc(CC3CCN(C)CC3)no2)c1`, for which the cytotoxicity at 70.5 h is -6.75%.

Consider `O=C(NCCc1cccc(O)c1)NC1CCN(c2ccccc2)C1=O` (centres undefined), for which the cytotoxicity at 70.5 h was 1.16%.

In the case of `Cc1cc(NC(=O)CNC2CCc3nc(C(C)C)nn3C2)no1` (centres undefined), the cytotoxicity at 70.5 h is -6.53%.

As for `c1ccc2oc(N3CCC(c4nncn4C4CC4)CC3)nc2c1`, the cytotoxicity at 70.5 h turned out to be 29.8%.

In the case of `CCCn1ccnc1CN1C[C@@H](NC(C)=O)[C@H](c2ccc(C)cc2)C1`, the cytotoxicity at 70.5 h is -0.633%.

Turning to `O=C(CO[C@@H]1CC[C@H]2[C@H]1OCCN2c1ncccn1)N1CCCC1`, the cytotoxicity at 70.5 h is -0.322%.

`Cc1cc(C)nc(CN(C)C(=O)C(c2cccnc2)N2CCCC2)c1` (centres undefined): the cytotoxicity at 70.5 h is -9.19%.

Regarding `COc1ccc([C@@H]2CN(C(=O)CS(C)(=O)=O)C[C@H]2NC(C)=O)cc1`, the cytotoxicity at 70.5 h is -2.94%.

Turning to `O=C(c1cccnc1)N1CCOC(CCCc2ccccc2)C1` (centres undefined), the cytotoxicity at 70.5 h worked out at 0.528%.

As to `N#Cc1ccnc(N2CCN(CC(O)c3c(F)cccc3F)CC2)c1` (centres undefined), the cytotoxicity at 70.5 h is 15.3%.

As to `CC(C)=CCn1ncc(N2CCOCC2)cc1=O`, the cytotoxicity at 70.5 h is -1.75%.

For the molecule `Cc1noc(CN2CC=C(c3cnn(C4CCS(=O)(=O)C4)c3)CC2)n1` (centres undefined), the cytotoxicity at 70.5 h was 27.9%.

With `O=C(Cc1n[nH]c2ccccc12)N1CCCC1Cn1cccn1` (centres undefined), the cytotoxicity at 70.5 h stood at 0.964%.

In the case of `COc1ccc(C(=O)NCC(c2cccn2C)N2CCCC2)cc1OC` (centres undefined), the cytotoxicity at 70.5 h is -4.98%.

Consider `O=C(c1ccccn1)N1CCN(c2ccc(-n3cccc3)nn2)CC1`, for which the cytotoxicity at 70.5 h was -4.16%.

`CCCS(=O)(=O)CCN1CCN(c2cc(F)ccc2F)CC1`: the cytotoxicity at 70.5 h worked out at 2.83%.

Turning to `O=C(O)c1ccc(CC2CCN(Cc3ccc(-c4cc[nH]n4)o3)C2)cc1` (centres undefined), the cytotoxicity at 70.5 h is -5.13%.

In the case of `O=C(c1ccc(-c2cccc3c2CCNC3)o1)N1CCOCC1`, the cytotoxicity at 70.5 h was -6.54%.

For the molecule `Cc1ccoc1C(=O)N1CCOCC2(CCN(c3ncccn3)C2)C1` (centres undefined), the cytotoxicity at 70.5 h was -11.7%.

Regarding `COCCCNC(=O)Cc1cc(-c2ccccc2)on1`, the cytotoxicity at 70.5 h was -0.233%.

Regarding `CN(C(=O)Cc1ccc2c(c1)OCCO2)C1CCCCC1`, the cytotoxicity at 70.5 h is -1.71%.

For the molecule `Clc1snnc1CN1CCN(c2nccs2)CC1`, the cytotoxicity at 70.5 h was -13.7%.

With `Cn1cc(C2CCCN2C(=O)CCCc2ccccn2)cn1` (centres undefined), the cytotoxicity at 70.5 h was -7.85%.

`O=S1(=O)CCC(n2nc(COc3ccccc3)nc2-c2cnccn2)C1` (centres undefined): the cytotoxicity at 70.5 h is -1.94%.

Consider `COc1ccc(Cl)cc1CN(C)CC(=O)/N=c1\cc[nH]n1C(C)C1CC1` (centres undefined), for which the cytotoxicity at 70.5 h worked out at 20.8%.

With `COc1cccc(CN2C[C@@H]3COC[C@]3(COCc3ccccn3)C2)c1`, the cytotoxicity at 70.5 h was found to be 2.25%.

Regarding `Cn1ccnc1CNC(=O)Nc1ccc(OC2CCC2)c(F)c1`, the cytotoxicity at 70.5 h came out at 20%.

`CC(C)Cc1cc(NC(=O)N2CCC(Oc3cccnc3)C2)n(C)n1` (centres undefined): the cytotoxicity at 70.5 h is 5.38%.

Regarding `NC(=O)NCC(=O)N1CCC2(CC1)c1ccccc1CC2O` (centres undefined), the cytotoxicity at 70.5 h was -11.6%.

With `CCc1noc(C)c1C(=O)NCc1ccccn1`, the cytotoxicity at 70.5 h is -0.245%.

`Cc1nc(COC[C@@H]2CC[C@H]3[C@H](CCN3c3ncccn3)O2)cs1`: the cytotoxicity at 70.5 h is -7.79%.

Take `CN1CCCn2c(nc(CNC(=O)c3ccsc3)cc2=O)C1`: the cytotoxicity at 70.5 h is -15.1%.

Regarding `CN(C)C(=O)CNC(=O)c1nc(C2CC2)n(-c2ccccc2Cl)n1`, the cytotoxicity at 70.5 h was -13.7%.

`CCn1nc2c(cc1=O)CN(CCCOc1ccc(C#N)cc1)CC2`: the cytotoxicity at 70.5 h came to 10.4%.

As for `O=C(NCC1CCCO1)c1c(-n2cnnn2)sc2c1CCC2` (centres undefined), the cytotoxicity at 70.5 h was -18.6%.

Take `CC(NC(=O)CSCC(N)=O)c1ccc(Oc2ccccc2)cc1` (centres undefined): the cytotoxicity at 70.5 h was -8.85%.

As to `CN1CCNC(=O)C1CC(=O)NCCc1cnn(-c2ccccc2)c1` (centres undefined), the cytotoxicity at 70.5 h was found to be 19.9%.

As to `N#Cc1cccnc1NCCNC(=O)N1CCCSCC1`, the cytotoxicity at 70.5 h was -13%.

With `Cn1ncc2ccc(C3CCCN(C(=O)Cc4cccs4)C3)nc21` (centres undefined), the cytotoxicity at 70.5 h was 13.1%.

`NCc1cn(CC2CCCN(C(=O)CC3=CCCCC3)C2)nn1` (centres undefined): the cytotoxicity at 70.5 h was -11.9%.

The values above are taken from ChEMBL document CHEMBL3507680, “University of Dundee, Gates Library screen for HepG2 cell viability”.
